Legend:
Assay type in all cases: cell-based
[1] = test system: panel of 60 human tumor cell lines; experiment: NCI 60-cell line one-dose screen (mean); conditions: mean of the 60 cell lines, single dose 10^−5 M, read-out: Mean % Growth Inhibition
Description: (§1) The newly synthesized compounds were screened for their in vitro anticancer activity at the Developmental Therapeutic Program (DTP) of the National Cancer Institute (NCI). The screening involved a panel of 60 human tumor cell lines consisting of 9 tissue types to screen for potential anti-cancer agents. The primary screening of submitted compounds was performed by testing a single dose (10^−5 M) in the full NCI-60 panel. The detailed % inhibition by the tested compounds against the 60 cell lines is shown in Tables S1–S3 in the Supporting Information.

SNB-75 = experiment: NCI-60 one-dose screen; conditions: Homo sapiens; SNB-75, CNS Cancer panel; single dose 10^−5 M; read-out: Growth inhibition %
Description: as §1

OVCAR-4 = experiment: NCI-60 one-dose screen; conditions: Homo sapiens; OVCAR-4, Ovarian Cancer panel; single dose 10^−5 M; read-out: Growth inhibition %
Description: as §1

HCC-2998 = experiment: NCI-60 one-dose screen; conditions: Homo sapiens; HCC-2998, Colon Cancer panel; single dose 10^−5 M; read-out: Growth inhibition %
Description: as §1

OVCAR-8 = experiment: NCI-60 one-dose screen; conditions: Homo sapiens; OVCAR-8, Ovarian Cancer panel; single dose 10^−5 M; read-out: Growth inhibition %
Description: as §1

NCI-H226 = experiment: NCI-60 one-dose screen; conditions: Homo sapiens; NCI-H226, Non-small cell lung panel; single dose 10^−5 M; read-out: Growth inhibition %
Description: as §1

HOP-62 = experiment: NCI-60 one-dose screen; conditions: Homo sapiens; HOP-62, Non-small cell lung panel; single dose 10^−5 M; read-out: Growth inhibition %
Description: as §1

SF-295 = experiment: NCI-60 one-dose screen; conditions: Homo sapiens; SF-295, CNS Cancer panel; single dose 10^−5 M; read-out: Growth inhibition %
Description: as §1

DU-145 = experiment: NCI-60 one-dose screen; conditions: Homo sapiens; DU-145, Prostate Cancer panel; single dose 10^−5 M; read-out: Growth inhibition %
Description: as §1

UO-31 = experiment: NCI-60 one-dose screen; conditions: Homo sapiens; UO-31, Renal Cancer panel; single dose 10^−5 M; read-out: Growth inhibition %
Description: as §1

MDA-MB-231/ATCC = experiment: NCI-60 one-dose screen; conditions: Homo sapiens, Breast Cancer panel, single dose 10^−5 M, read-out: Growth inhibition %
Description: as §1

CAKI-1 = experiment: NCI-60 one-dose screen; conditions: Homo sapiens; CAKI-1, Renal Cancer panel; single dose 10^−5 M; read-out: Growth inhibition %
Description: as §1

NCI/ADR-RES = experiment: NCI-60 one-dose screen; conditions: Homo sapiens, Ovarian Cancer panel, single dose 10^−5 M, read-out: Growth inhibition %
Description: as §1

U251 = experiment: NCI-60 one-dose screen; conditions: Homo sapiens, U-251; U251, CNS Cancer panel; single dose 10^−5 M; read-out: Growth inhibition %
Description: as §1

OVCAR-5 = experiment: NCI-60 one-dose screen; conditions: Homo sapiens; OVCAR-5, Ovarian Cancer panel; single dose 10^−5 M; read-out: Growth inhibition %
Description: as §1

SN12C = experiment: NCI-60 one-dose screen; conditions: Homo sapiens, Renal Cancer panel, single dose 10^−5 M, read-out: Growth inhibition %
Description: as §1

SNB-19 = experiment: NCI-60 one-dose screen; conditions: Homo sapiens; SNB-19, CNS Cancer panel; single dose 10^−5 M; read-out: Growth inhibition %
Description: as §1

OVCAR-3 = experiment: NCI-60 one-dose screen; conditions: Homo sapiens; OVCAR-3, Ovarian Cancer panel; single dose 10^−5 M; read-out: Growth inhibition %
Description: as §1

NCI-H23 = experiment: NCI-60 one-dose screen; conditions: Homo sapiens; NCI-H23, Non-small cell lung panel; single dose 10^−5 M; read-out: Growth inhibition %
Description: as §1

T-47D = experiment: NCI-60 one-dose screen; conditions: Homo sapiens, T47D, Breast Cancer panel, single dose 10^−5 M, read-out: Growth inhibition %
Description: as §1

RXF 393 = experiment: NCI-60 one-dose screen; conditions: Homo sapiens; RXF 393, Renal Cancer panel; single dose 10^−5 M; read-out: Growth inhibition %
Description: as §1

MDA-MB-435 = experiment: NCI-60 one-dose screen; conditions: Homo sapiens; MDA-MB-435, Melanoma panel; single dose 10^−5 M; read-out: Growth inhibition %
Description: as §1

ACHN = experiment: NCI-60 one-dose screen; conditions: Homo sapiens, Renal Cancer panel, single dose 10^−5 M, read-out: Growth inhibition %
Description: as §1

K-562 = experiment: NCI-60 one-dose screen; conditions: Homo sapiens, K562; K-562, Leukemia panel; single dose 10^−5 M; read-out: Growth inhibition %
Description: as §1

SK-OV-3 = experiment: NCI-60 one-dose screen; conditions: Homo sapiens; SK-OV-3, Ovarian Cancer panel; single dose 10^−5 M; read-out: Growth inhibition %
Description: as §1

SK-MEL-2 = experiment: NCI-60 one-dose screen; conditions: Homo sapiens; SK-MEL-2, Melanoma panel; single dose 10^−5 M; read-out: Growth inhibition %
Description: as §1

COLO 205 = experiment: NCI-60 one-dose screen; conditions: Homo sapiens; COLO 205, Colon Cancer panel; single dose 10^−5 M; read-out: Growth inhibition %
Description: as §1

SK-MEL-5 = experiment: NCI-60 one-dose screen; conditions: Homo sapiens; SK-MEL-5, Melanoma panel; single dose 10^−5 M; read-out: Growth inhibition %
Description: as §1

A549/ATCC = experiment: NCI-60 one-dose screen; conditions: Homo sapiens, Non-small cell lung panel, single dose 10^−5 M, read-out: Growth inhibition %
Description: as §1

UACC-62 = experiment: NCI-60 one-dose screen; conditions: Homo sapiens; UACC-62, Melanoma panel; single dose 10^−5 M; read-out: Growth inhibition %
Description: as §1

SMILES	inhibition at 10 µM [1]	inhibition at 10 µM (SNB-75)	inhibition at 10 µM (OVCAR-4)	inhibition at 10 µM (HCC-2998)	inhibition at 10 µM (OVCAR-8)	inhibition at 10 µM (NCI-H226)	inhibition at 10 µM (HOP-62)	inhibition at 10 µM (SF-295)	inhibition at 10 µM (DU-145)	inhibition at 10 µM (UO-31)	inhibition at 10 µM (MDA-MB-231/ATCC)	inhibition at 10 µM (CAKI-1)	inhibition at 10 µM (NCI/ADR-RES)	inhibition at 10 µM (U251)	inhibition at 10 µM (OVCAR-5)	inhibition at 10 µM (SN12C)	inhibition at 10 µM (SNB-19)	inhibition at 10 µM (OVCAR-3)	inhibition at 10 µM (NCI-H23)	inhibition at 10 µM (T-47D)	also measured
c1coc(CNc2c3ccccc3nc3ccccc23)c1 [Compound 14, Acridin-9-yl-furan-2-ylmethyl-amine]	38.4%	18.5%	43.1%	31.1%	52.5%	37.1%	30.4%	46.1%	24%	60.5%	39.5%	59%	55.2%	34.9%	23.6%	46.5%	37.2%	3.11%	36.4%	30.7%	inhibition at 10 µM (RXF 393): 38.5%; inhibition at 10 µM (MDA-MB-435): 12.4%; inhibition at 10 µM (ACHN): 73.8%; inhibition at 10 µM (K-562): 55.3%; inhibition at 10 µM (SK-OV-3): 29.1%; inhibition at 10 µM (SK-MEL-2): -1.22%; inhibition at 10 µM (COLO 205): 64.8%; inhibition at 10 µM (SK-MEL-5): 15.7%; inhibition at 10 µM (A549/ATCC): 38.1%; inhibition at 10 µM (UACC-62): 33.9%
COc1ccc(CNc2c3ccccc3nc3ccccc23)cc1F [Compound 19, Acridin-9-yl-(3-fluoro-4-methoxybenzyl)-amine]	76.2%	57.5%	73.8%	94.2%	70.6%	57%	55.5%	79.9%	72.8%	86.5%	70.8%	78.7%	79.2%	73.1%	63.1%	74.1%	72%	47.8%	73%	65%	inhibition at 10 µM (RXF 393): 88.9%; inhibition at 10 µM (MDA-MB-435): 92.4%; inhibition at 10 µM (ACHN): 89.1%; inhibition at 10 µM (K-562): 95.2%; inhibition at 10 µM (SK-OV-3): 52%; inhibition at 10 µM (SK-MEL-2): 54.9%; inhibition at 10 µM (COLO 205): 91.3%; inhibition at 10 µM (SK-MEL-5): 63.5%; inhibition at 10 µM (A549/ATCC): 77.2%; inhibition at 10 µM (UACC-62): 57.5%
Clc1cccc(CNc2c3ccccc3nc3ccccc23)c1 [Compound 12, Acridin-9-yl-(3-chlorobenzyl)-amine]	73%	31.3%	81.2%	154%	68.9%	52%	54.5%	79.2%	68.3%	84%	70.6%	71.8%	73.7%	77.3%	67.6%	76.4%	73.6%	42.3%	68%	59.1%	inhibition at 10 µM (RXF 393): 81%; inhibition at 10 µM (MDA-MB-435): 53.4%; inhibition at 10 µM (ACHN): 84.3%; inhibition at 10 µM (K-562): 95%; inhibition at 10 µM (SK-OV-3): 36.1%; inhibition at 10 µM (SK-MEL-2): 22.7%; inhibition at 10 µM (COLO 205): 99.5%; inhibition at 10 µM (SK-MEL-5): 33.8%; inhibition at 10 µM (A549/ATCC): 72.1%; inhibition at 10 µM (UACC-62): 47.5%
Clc1ccccc1CNc1c2ccccc2nc2ccccc12 [Compound 11, Acridin-9-yl-(2-chlorobenzyl)-amine]	78.4%	56.9%	86.9%	117%	76.2%	61.1%	59.1%	78.3%	68.2%	82.5%	71%	74.8%	76.2%	76.8%	67.4%	72.2%	74.2%	46.4%	78.4%	69.5%	inhibition at 10 µM (RXF 393): 85%; inhibition at 10 µM (MDA-MB-435): 72.8%; inhibition at 10 µM (ACHN): 87.8%; inhibition at 10 µM (K-562): 94.7%; inhibition at 10 µM (SK-OV-3): 45.1%; inhibition at 10 µM (SK-MEL-2): 44.4%; inhibition at 10 µM (COLO 205): 99.5%; inhibition at 10 µM (SK-MEL-5): 58.2%; inhibition at 10 µM (A549/ATCC): 80.8%; inhibition at 10 µM (UACC-62): 59%

— article PMC9866191, “Novel 9-Benzylaminoacridine Derivatives as Dual Inhibitors of Phosphodiesterase 5 and Topoisomerase II for the Treatment of Colon Cancer” (Molecules, 2023)
